For the experiment, the system named is B6C3F1 mice, ip Sarcoma M5076, median survival T/C. Description: NCI In Vivo Anticancer Drug Screen. Data for tumor model Sarcoma M5076 (intraperitoneal) in B6C3F1 mice. The note with it: endpoint: median survival time, schedule: Q04DX004 (ip), higher = longer survival. Put shortly: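 The readout is a ratio of survival in drug-treated animals to survival in animals given vehicle alone, taken in mice bearing a transplanted tumour line.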

Setting [1] is: dose: 6.25 mg/kg/injection, vehicle: Klucel (hydroxypropylcellulose) (HPC).
The mark [2] stands for this setting: dose: 12.5 mg/kg/injection, vehicle: Klucel (hydroxypropylcellulose) (HPC).
The mark [3] stands for this setting: dose: 50.0 mg/kg/injection, vehicle: Klucel (hydroxypropylcellulose) (HPC).
Where [4] appears, read: dose: 100.0 mg/kg/injection, vehicle: Klucel (hydroxypropylcellulose) (HPC).
Where [5] appears, read: dose: 200.0 mg/kg/injection, vehicle: Klucel (hydroxypropylcellulose) (HPC).
Where [6] appears, read: dose: 400.0 mg/kg/injection, vehicle: Klucel (hydroxypropylcellulose) (HPC).
Where [7] appears, read: dose: 25.0 mg/kg/injection, vehicle: saline with Tween-80.
Where [8] appears, read: dose: 50.0 mg/kg/injection, vehicle: saline with Tween-80.
[9] abbreviates: dose: 100.0 mg/kg/injection, vehicle: saline with Tween-80.
[10] abbreviates: dose: 200.0 mg/kg/injection, vehicle: saline with Tween-80.
Setting [11] is: dose: 25.0 mg/kg/injection, vehicle: water.
Where [12] appears, read: dose: 50.0 mg/kg/injection, vehicle: water.
The mark [13] stands for this setting: dose: 12.5 mg/kg/injection, vehicle: saline with Tween-80.

This passage reports T/C results from PubChem BioAssay AID292 (DTP/NCI, 2004).

“And” between values parts separate entries of the source, which are not always exact repeats. Equal entries are not always repeated. Toxic doses and inconclusive results are not listed.

For `O=[N+]([O-])c1ccc([I+]c2ccccc2)cc1`, the T/C runs as follows: under setting [1], 95 % of control; under setting [2], 109 % of control; (dose: 25.0 mg/kg/injection, vehicle: Klucel (hydroxypropylcellulose) (HPC)) 99 % of control; under setting [3], 106 % of control.

Take `CC1=C(N2CCOCC2)C(N2CCOCC2)=C(C)C(=O)C1=O`: the T/C under setting [3] is 104 % of control; the T/C under setting [4] was 100 % of control; the T/C under setting [5] is 100 % of control; the T/C under setting [6] was 113 % of control; the T/C (dose: 800.0 mg/kg/injection, vehicle: Klucel (hydroxypropylcellulose) (HPC)) was 95 % of control.

In the case of `O=C1C[C@@H](c2ccccc2)NCCCCN(O)CCCN1`, the T/C is 102 % of control (dose: 25.0 mg/kg/injection, vehicle: saline); 102 % of control (dose: 50.0 mg/kg/injection, vehicle: saline); 102 % of control (dose: 100.0 mg/kg/injection, vehicle: saline).

On to `COC1=C(C)C(=O)C2=C(C1=O)C(CO)N1C(C#N)C3CC4C(C1C2N1CCOC41)N3C` (stereo not drawn), for which the T/C was 97 % of control (dose: 0.12 mg/kg/injection, vehicle: acid diluted with saline); 103 % of control (dose: 0.25 mg/kg/injection, vehicle: acid diluted with saline); 100 % of control (dose: 0.5 mg/kg/injection, vehicle: acid diluted with saline); 90 % of control and 93 % of control (dose: 1.0 mg/kg/injection, vehicle: acid diluted with saline); 98 % of control and 109 % of control (dose: 2.0 mg/kg/injection, vehicle: acid diluted with saline).

`CCOc1ccc(C(C)c2cc3c(cc2OC)OCO3)cc1` (stereo not drawn): the T/C was 99 % of control and 102 % of control (dose: 62.5 mg/kg/injection, vehicle: distilled water + Tween-80); 102 % of control and 124 % of control (dose: 125.0 mg/kg/injection, vehicle: distilled water + Tween-80); 117 % of control (dose: 250.0 mg/kg/injection, vehicle: distilled water + Tween-80).

Turning to `CC(C)(C)c1cc2c3c(c1)Oc1cc(C(C)(C)C)cc4c1C3(O)c1c(cc(C(C)(C)C)cc1O4)O2`, the T/C by setting is: under setting [1], 111 % of control; (dose: 9.0 mg/kg/injection, vehicle: Klucel (hydroxypropylcellulose) (HPC)) 113 % of control; under setting [2], 113 % of control.

As for `Cc1nn(-c2ccccn2)c2ncnc(N)c12`, the T/C is, setting by setting: (dose: 37.5 mg/kg/injection, vehicle: saline with Tween-80) 106 % of control; (dose: 75.0 mg/kg/injection, vehicle: saline with Tween-80) 102 % of control; (dose: 150.0 mg/kg/injection, vehicle: saline with Tween-80) 86 % of control.

Take `O=C(N/N=C/c1ccco1)c1ccc(OCc2nc3ccccc3[nH]2)cc1`: the T/C is, setting by setting: under setting [7], 97 % of control; under setting [8], 95 % of control; under setting [9], 96 % of control; under setting [10], 90 % of control.

Take `O=C1CN2CCN3CC(=O)NC(=O)[C@H]3[C@H]2C(=O)N1`: the T/C is 101 % of control (dose: 28.13 mg/kg/injection, vehicle: saline with Tween-80); 98 % of control (dose: 56.25 mg/kg/injection, vehicle: saline with Tween-80); 93 % of control (dose: 112.5 mg/kg/injection, vehicle: saline with Tween-80); 92 % of control (dose: 225.0 mg/kg/injection, vehicle: saline with Tween-80); 91 % of control (dose: 450.0 mg/kg/injection, vehicle: saline with Tween-80).

Take `S=c1sc2ccccc2n1CN1CCOCC1`: the T/C under setting [7] is 105 % of control and 107 % of control; the T/C under setting [8] is 95 % of control and 111 % of control; the T/C under setting [9] is 90 % of control and 104 % of control; the T/C under setting [10] was 96 % of control and 97 % of control.

`Cc1ccc(NN=O)nc1`: the T/C runs as follows: (dose: 3.13 mg/kg/injection, vehicle: water) 113 % of control; (dose: 6.25 mg/kg/injection, vehicle: water) 113 % of control; under setting [11], 160 % of control; under setting [12], 160 % of control.

As for `N#CC(=C1C=CC(=NO)C=C1)c1ccc(Cl)cc1`, under “dose: 600.0 mg/kg/injection, vehicle: saline with Tween-80”, the T/C was 96 % of control.

Regarding `O=NNc1cccnc1`, the T/C (dose: 12.5 mg/kg/injection, vehicle: water) is 99 % of control and 119 % of control; the T/C under setting [11] was 110 % of control and 113 % of control; the T/C under setting [12] is 97 % of control and 110 % of control; the T/C (dose: 100.0 mg/kg/injection, vehicle: water) is 124 % of control.

Regarding `COc1cc2c(c(OC)c1OC)-c1ccc(OC)c(=O)cc1[C@@H](NC(C)=O)CC2`, the T/C (dose: 0.38 mg/kg/injection, vehicle: saline) is 106 % of control; the T/C (dose: 0.54 mg/kg/injection, vehicle: saline) was 101 % of control; the T/C (dose: 0.75 mg/kg/injection, vehicle: saline) was 112 % of control; the T/C (dose: 0.9 mg/kg/injection, vehicle: saline) was 116 % of control; the T/C (dose: 2.5 mg/kg/injection, vehicle: saline) is 123 % of control; the T/C (dose: 185.0 micrograms/kg/injection, vehicle: saline) is 96 % of control. Moreover, the T/C is 95 % of control (dose: 375.0 micrograms/kg/injection, vehicle: saline); 100 % of control (dose: 750.0 micrograms/kg/injection, vehicle: saline); 100 % of control (dose: 1500.0 micrograms/kg/injection, vehicle: saline); 97 % of control (dose: 3000.0 micrograms/kg/injection, vehicle: saline).

With `CCOc1ccc(N2C(=O)C(=O)C(C(C)=O)C2=O)cc1` (stereo not drawn), the T/C under setting [3] was 102 % of control, the T/C under setting [4] was 102 % of control, the T/C under setting [5] is 101 % of control and the T/C under setting [6] is 100 % of control.

With `Cn1c(-c2ccc(/C=N\N3CCN(/N=C/c4ccc(-c5c[n+]6ccsc6n5C)cc4)CC3)cc2)c[n+]2ccsc12`, the T/C is 109 % of control (dose: 1.5 mg/kg/injection, vehicle: saline with Tween-80); 104 % of control (dose: 3.0 mg/kg/injection, vehicle: saline with Tween-80); 101 % of control (dose: 6.0 mg/kg/injection, vehicle: saline with Tween-80).

Take `COc1ccc(C(N)=O)cc1N=NN(C)C`: the T/C is 118 % of control and 121 % of control under setting [2]; 154 % of control and 179 % of control under setting [4].

Consider `CN1COc2c(n(C)c(=O)[nH]c2=O)C1`, for which the T/C (dose: 50.0 mg/kg/injection, vehicle: suspension in saline) is 106 % of control; the T/C (dose: 100.0 mg/kg/injection, vehicle: suspension in saline) was 106 % of control; the T/C (dose: 200.0 mg/kg/injection, vehicle: suspension in saline) is 105 % of control; the T/C (dose: 400.0 mg/kg/injection, vehicle: suspension in saline) was 106 % of control; the T/C (dose: 800.0 mg/kg/injection, vehicle: suspension in saline) is 114 % of control.

In the case of `O=C/C(Cl)=C(/Cl)C(=O)O`, the T/C is 92 % of control (dose: 6.25 mg/kg/injection, vehicle: saline with Tween-80); 104 % of control and 110 % of control under setting [13]; 109 % of control and 119 % of control under setting [7].

For `NC(Cc1ccc[se]1)C(=O)O` (stereo not drawn), the T/C is, setting by setting: under setting [13], 94 % of control; under setting [7], 103 % of control; under setting [8], 109 % of control.
